According to patent publication US20240165259A1, “BIOORTHOGONAL REACTION SUITABLE FOR CLICK/UNCLICK APPLICATIONS” (DANA-FARBER CANCER INSTITUTE, INC., priority 2021, published 2024):

Target: T1, HaloTag protein (Rhodococcus rhodochrous, UniProt P0A3G2, A155T/A167V/A172T/A224E/C128F/C176G/D78G/E160K/E257K/H272N/K175M/K195N/L47V/L88M/N227D/S58T/T264A/Y273L/Y87F)
T1 construct: made in house; host or cells: E. coli (the text prints transformation into DH5a; BL21(DE3) was also purchased)
Assay: HaloTag protein labeling, in-gel fluorescence (time- and concentration-dependent)
Assay type: biochemical
Conditions: HaloTag protein conjugated to alkyne 21′, 200 μM 22′, room temperature
Experimental: The viability of the reaction was evaluated both in vitro and in cells (FIG. 14A-FIG. 14B). Purified recombinant HaloTag protein (Los et al., ACS Chem. Biol. 3(6):373-382 (2008); Murrey et al., J. Am. Chem. Soc. 137(35):11461-11475 (2015)) was incubated with HaloTag linker-conjugated difluoropropargyl ether 21′ for 10 minutes at room temperature in pH 7.0 phosphate buffer to provide alkyne-conjugated protein. This protein was then treated with 200 μM TAMRA-N-methylhydroxylamine 22′ and analyzed at various time points by in-gel fluorescence.
Buffer A: pH 7.0, 50 mM NaH2PO4, 20 mM NaCl
A stock solution of HaloTag® protein (15.3 μL, 2.01 mg/mL in buffer A) was added to 29.7 μL of buffer A to prepare a HaloTag® working solution (solution A, 19.7 μM, 45 μL). […]
A solution of alkyne 21′ in DMSO (700 μM) was added to reactions C (0.22 μL) and D (1.10 μL). […] In-gel fluorescence was imaged with a Typhoon™ FLA 9500 (GE) at 532 nm with a photomultiplier tube (PMT) setting of 500 V. The experiment was carried out in triplicate (FIG. 21A-FIG. 21B). […]
A solution of alkyne 21′ in DMSO (700 μM) was added to reactions C (0.22 μL) and D (0.88 μL). […] In-gel fluorescence was imaged with a Typhoon™ FLA 9500 (GE) at 532 nm with a photomultiplier tube (PMT) setting of 500 V. The experiment was carried out in triplicate (FIG. 22A-FIG. 22B).

T1 sequence (P0A3G2 other isoform, or with tags, fused parts or gaps with the stated changes): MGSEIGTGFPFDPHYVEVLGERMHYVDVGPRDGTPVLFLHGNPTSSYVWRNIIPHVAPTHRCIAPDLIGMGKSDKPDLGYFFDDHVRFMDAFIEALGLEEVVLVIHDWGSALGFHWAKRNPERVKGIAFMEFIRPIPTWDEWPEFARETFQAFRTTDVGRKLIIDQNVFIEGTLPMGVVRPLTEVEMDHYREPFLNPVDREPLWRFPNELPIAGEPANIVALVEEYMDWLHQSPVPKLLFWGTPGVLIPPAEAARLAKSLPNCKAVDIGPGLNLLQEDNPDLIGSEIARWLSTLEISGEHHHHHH

## CN(O)CCOCCNC(=O)c1ccc2c(c1)C1(OC2=O)c2ccc(N(C)C)cc2Oc2cc(N(C)C)ccc21 [compound 13, 3′,6′-bis(dimethylamino)-N-(2-(2-(hydroxy(methyl)amino)ethoxy)ethyl)-3-oxo-3H-spiro[isobenzofuran-1,9′-xanthene]-6-carboxamide]
  time at which fluorophore-labeled protein was observed: ≤ 1 min
